According to PubChem BioAssay (NCI):
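A five-concentration, 48-hour dose response in 96-well plates underlies each endpoint, interpolated linearly between surrounding concentrations. Definition used: TGI = concentration required for complete inhibition of growth.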

Legend:
Test in all cases: NCI tumour cell line growth inhibition, 48 h
786-0 renal = system: 786-0 renal
A498 renal = system: A498 renal
A549 NSCLC = system: A549 NSCLC
ACHN renal = system: ACHN renal
BT-549 breast = system: BT-549 breast
CAKI-1 renal = system: CAKI-1 renal
CCRF-CEM leukemia = system: CCRF-CEM leukemia
COLO 205 colon = system: COLO 205 colon
DU-145 prostate = system: DU-145 prostate
EKVX NSCLC = system: EKVX NSCLC
HCT-116 colon = system: HCT-116 colon
HCT-15 colon = system: HCT-15 colon
HL-60(TB) leukemia = system: HL-60(TB) leukemia
HOP-62 NSCLC = system: HOP-62 NSCLC
HOP-92 NSCLC = system: HOP-92 NSCLC
HS 578T breast = system: HS 578T breast
HT29 colon = system: HT29 colon
IGROV1 ovarian = system: IGROV1 ovarian
K-562 leukemia = system: K-562 leukemia
KM12 colon = system: KM12 colon
LOX IMVI melanoma = system: LOX IMVI melanoma
M14 melanoma = system: M14 melanoma
MALME-3M melanoma = system: MALME-3M melanoma
MCF7 breast = system: MCF7 breast
MDA-MB-231 breast = system: MDA-MB-231 breast
MDA-MB-435 = system: MDA-MB-435
MDA-N = system: MDA-N
MOLT-4 leukemia = system: MOLT-4 leukemia
NCI-H226 lung = system: NCI-H226 lung
NCI-H23 lung = system: NCI-H23 lung
NCI-H460 lung = system: NCI-H460 lung
NCI-H522 lung = system: NCI-H522 lung
NCI/ADR-RES ovarian = system: NCI/ADR-RES ovarian
OVCAR-3 ovarian = system: OVCAR-3 ovarian
OVCAR-4 ovarian = system: OVCAR-4 ovarian
OVCAR-5 ovarian = system: OVCAR-5 ovarian
OVCAR-8 ovarian = system: OVCAR-8 ovarian
PC-3 prostate = system: PC-3 prostate
RPMI-8226 leukemia = system: RPMI-8226 leukemia
RXF 393 renal = system: RXF 393 renal
SF-268 CNS = system: SF-268 CNS
SF-295 CNS = system: SF-295 CNS
SF-539 CNS = system: SF-539 CNS
SK-MEL-2 melanoma = system: SK-MEL-2 melanoma
SK-MEL-28 melanoma = system: SK-MEL-28 melanoma
SK-MEL-5 melanoma = system: SK-MEL-5 melanoma
SK-OV-3 ovarian = system: SK-OV-3 ovarian
SN12C renal = system: SN12C renal
SNB-19 CNS = system: SNB-19 CNS
SNB-75 CNS = system: SNB-75 CNS
SW-620 colon = system: SW-620 colon
T-47D breast = system: T-47D breast
TK-10 renal = system: TK-10 renal
U251 CNS = system: U251 CNS
UACC-257 melanoma = system: UACC-257 melanoma
UACC-62 melanoma = system: UACC-62 melanoma
UO-31 renal = system: UO-31 renal

Work on `Cc1ccc(I)cc1N=C=S` yielded a TGI (786-0 renal) of 60 µM, a TGI (A498 renal) of 48.8 µM and a TGI (A549 NSCLC) of 82.3 µM. It also gave a TGI (ACHN renal) of 54.8 µM, a TGI (BT-549 breast) of 30.5 µM and a TGI (CAKI-1 renal) of 71.2 µM. The TGI (CCRF-CEM leukemia) was 57.2 µM, the TGI (COLO 205 colon) was 34 µM and the TGI (DU-145 prostate) was 96.1 µM. For the same compound, the TGI (EKVX NSCLC) was 63.4 µM, the TGI (HCT-116 colon) was 91.9 µM and the TGI (HCT-15 colon) was 34.8 µM. It also gave a TGI (HL-60(TB) leukemia) of 44.3 µM, a TGI (HOP-62 NSCLC) of 59.8 µM and a TGI (HOP-92 NSCLC) greater than 100 µM. It also gave a TGI (HS 578T breast) of 91.8 µM, a TGI (HT29 colon) of 53 µM and a TGI (IGROV1 ovarian) greater than 100 µM. For the same compound, the TGI (K-562 leukemia) was 54.7 µM, the TGI (KM12 colon) was 36.9 µM and the TGI (LOX IMVI melanoma) was 53.8 µM. It also gave a TGI (M14 melanoma) of 38.7 µM, a TGI (MALME-3M melanoma) of 61.5 µM and a TGI (MCF7 breast) of 54.4 µM. The TGI (MDA-MB-231 breast) was 71.1 µM, the TGI (MDA-MB-435) was 73.7 µM and the TGI (MDA-N) was 86.5 µM. For the same compound, the TGI (MOLT-4 leukemia) was 43.8 µM, the TGI (NCI-H226 lung) was 39.9 µM and the TGI (NCI-H23 lung) was 42.1 µM. For the same compound, the TGI (NCI-H460 lung) was 52.1 µM, the TGI (NCI-H522 lung) was 36.6 µM and the TGI (NCI/ADR-RES ovarian) was 63.3 µM. It also gave a TGI (OVCAR-3 ovarian) greater than 100 µM, a TGI (OVCAR-4 ovarian) greater than 100 µM and a TGI (OVCAR-5 ovarian) of 50.4 µM. For the same compound, the TGI (OVCAR-8 ovarian) was greater than 100 µM, the TGI (PC-3 prostate) was 51.4 µM and the TGI (RPMI-8226 leukemia) was 54.1 µM. It also gave a TGI (RXF 393 renal) of 40.6 µM, a TGI (SF-268 CNS) of 75.8 µM and a TGI (SF-295 CNS) of 62.8 µM. The TGI (SF-539 CNS) was 35.4 µM, the TGI (SK-MEL-2 melanoma) was 38.6 µM and the TGI (SK-MEL-28 melanoma) was 39.2 µM. For the same compound, the TGI (SK-MEL-5 melanoma) was 30.1 µM, the TGI (SK-OV-3 ovarian) was greater than 100 µM and the TGI (SN12C renal) was 49.3 µM. For the same compound, the TGI (SNB-19 CNS) was 70.1 µM, the TGI (SNB-75 CNS) was 52.7 µM and the TGI (SW-620 colon) was greater than 100 µM. It also gave a TGI (T-47D breast) of 42.5 µM, a TGI (TK-10 renal) of 88.7 µM and a TGI (U251 CNS) of 48.6 µM. For the same compound, the TGI (UACC-257 melanoma) was 63.9 µM, the TGI (UACC-62 melanoma) was 31.6 µM and the TGI (UO-31 renal) was 33 µM.

`COC(=O)Nc1nc2ccc(NS(=O)(=O)c3ccc(Cl)cc3)cc2[nH]1` was tested, and the TGI (786-0 renal) was 56.3 µM, the TGI (A498 renal) was 9.91 µM and the TGI (A549 NSCLC) was 72.1 µM. It also gave a TGI (ACHN renal) greater than 100 µM, a TGI (BT-549 breast) of 55.2 µM and a TGI (CAKI-1 renal) of 21.1 µM. The TGI (CCRF-CEM leukemia) was 56.9 µM, the TGI (COLO 205 colon) was 24.5 µM and the TGI (DU-145 prostate) was 62.6 µM. The TGI (EKVX NSCLC) was 33.2 µM, the TGI (HCT-116 colon) was 11.1 µM and the TGI (HCT-15 colon) was greater than 100 µM. For the same compound, the TGI (HL-60(TB) leukemia) was 12.6 µM, the TGI (HOP-62 NSCLC) was 31.5 µM and the TGI (HOP-92 NSCLC) was 8.55 µM. For the same compound, the TGI (HS 578T breast) was 8.86 µM, the TGI (HT29 colon) was 15.5 µM and the TGI (IGROV1 ovarian) was 7.81 µM. For the same compound, the TGI (K-562 leukemia) was greater than 100 µM, the TGI (KM12 colon) was 14.9 µM and the TGI (LOX IMVI melanoma) was 16.9 µM. It also gave a TGI (M14 melanoma) of 23.4 µM, a TGI (MALME-3M melanoma) of 43.7 µM and a TGI (MCF7 breast) of 35.7 µM. For the same compound, the TGI (MDA-MB-231 breast) was 28.5 µM, the TGI (MDA-MB-435) was 5.5 µM and the TGI (MDA-N) was 5.93 µM. The TGI (MOLT-4 leukemia) was greater than 100 µM, the TGI (NCI-H226 lung) was 47.2 µM and the TGI (NCI-H23 lung) was 36.9 µM. For the same compound, the TGI (NCI-H460 lung) was 43.1 µM, the TGI (NCI-H522 lung) was 8.19 µM and the TGI (NCI/ADR-RES ovarian) was 47.7 µM. It also gave a TGI (OVCAR-3 ovarian) of 10.7 µM, a TGI (OVCAR-4 ovarian) of 51.5 µM and a TGI (OVCAR-5 ovarian) of 44.6 µM. It also gave a TGI (OVCAR-8 ovarian) of 54.7 µM, a TGI (PC-3 prostate) of 54.3 µM and a TGI (RPMI-8226 leukemia) of 26.8 µM. It also gave a TGI (RXF 393 renal) of 26.4 µM, a TGI (SF-268 CNS) of 67 µM and a TGI (SF-295 CNS) of 19.2 µM. For the same compound, the TGI (SF-539 CNS) was 30.4 µM, the TGI (SK-MEL-2 melanoma) was 26.8 µM and the TGI (SK-MEL-28 melanoma) was 27.3 µM. For the same compound, the TGI (SK-MEL-5 melanoma) was 16.7 µM, the TGI (SK-OV-3 ovarian) was 44.2 µM and the TGI (SN12C renal) was 72.3 µM. For the same compound, the TGI (SNB-19 CNS) was 29.6 µM, the TGI (SNB-75 CNS) was 7.59 µM and the TGI (SW-620 colon) was greater than 100 µM. It also gave a TGI (T-47D breast) of 60.7 µM, a TGI (TK-10 renal) of 17.7 µM and a TGI (U251 CNS) of 47.5 µM. It also gave a TGI (UACC-62 melanoma) of 33.5 µM and a TGI (UO-31 renal) of 40.7 µM.
